# Experimental data taken from US8263651B2, “Use of cis-epoxyeicosatrienoic acids and inhibitors of soluble epoxide hydrolase to treat conditions mediated by PBR, CB2, and NK2 receptors” (The Regents of the University of California, priority 2006, dated 2012).
# “Also recorded” adds a separate entry of the source. Read-outs that look alike come from different tables or passages of the source.
# Columns and labels:
# Dopamine D3 = Dopamine D3 (Homo sapiens, UniProt P35462); test: radio-ligand binding competition, D3; settings: for IC50: displacement of high affinity ligand; for % Inhibition of Control Specific Binding: second round, individual EET isomers, 3 μM
# Cannabinoid CB2 = target: T1, Cannabinoid CB2 (Homo sapiens, UniProt P34972); test: radio-ligand binding competition, CB2 ([3H]WIN 55212-2); settings: for % Inhibition of Control Specific Binding: individual EET isomers, 3 μM
# T1 construct: host or cells: CHO cells
# BZD (peripheral) = target: T2, BZD (peripheral) (Rattus norvegicus, UniProt P16257); test: radio-ligand binding competition, peripheral benzodiazepine receptor ([3H]PK 11195); settings: for IC50: displacement of [3H]PK 11195; for inhibition of binding of [3H]PK 11195 (FIG. 1): increasing concentrations; for % Inhibition of Control Specific Binding: second round, individual EET isomers, 3 μM
# T2 construct: containing 0.2 mg of cardiac membrane protein and the radioactive ligand; tissue CEREP (contract assay); host or cells: rat heart ventricular membranes
# Neurokinin NK2 = target: T3, Neurokinin NK2 (Homo sapiens, UniProt P21452); test: radio-ligand binding competition, NK2; settings: for IC50: displacement of high affinity ligand; for % Inhibition of Control Specific Binding: second round, individual EET isomers, 3 μM
# T3 sequence (P21452 1-398): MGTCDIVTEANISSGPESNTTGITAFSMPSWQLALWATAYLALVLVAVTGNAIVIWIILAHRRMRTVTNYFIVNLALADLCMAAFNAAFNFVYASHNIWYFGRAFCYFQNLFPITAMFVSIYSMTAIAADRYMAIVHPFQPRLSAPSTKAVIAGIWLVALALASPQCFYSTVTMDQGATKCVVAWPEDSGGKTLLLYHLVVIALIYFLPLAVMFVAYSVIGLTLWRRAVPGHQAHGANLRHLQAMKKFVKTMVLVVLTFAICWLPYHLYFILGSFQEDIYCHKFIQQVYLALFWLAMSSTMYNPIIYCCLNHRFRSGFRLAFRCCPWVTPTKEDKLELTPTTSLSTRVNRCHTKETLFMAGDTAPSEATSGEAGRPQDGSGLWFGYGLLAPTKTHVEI
# [1] = tested on: LPS-elicited thermal hyperalgesia; test: LPS-elicited inflammatory pain model, hindpaw thermal withdrawal latency; format: in vivo, rat; settings: for effect on the antihyperalgesic action of sEHI AEPU: topical, with LPS + AEPU (FIGS. 2A, 2B, 4); for effect on sEHI-elicited analgesia: with LPS + sEHI compound 950, two hours post LPS (FIG. 5); for effect on response to LPS administration: agent + LPS, no sEHI (FIG. 2D); for effect on baseline TWL response: agent by itself, no LPS (FIG. 2C)
# Description: Inflammatory pain model: The nociception response was measured using the hind paw withdrawal latency test modified after Hargreaves at al., Pain, 32(1):77-88 (1988). Male Sprague-Dowley rats weighing 240-260 g, are individually housed at UC Davis Animal Resource Facility under standard conditions with free access to food and water, and maintained for at least 1 week before the experiments. On the day of the experiments, the animals' basal response is measured and then compounds are topically administered preceding an injection with 10 ug of endotoxin (1Lipopolysaccharide, “LPS”, Sigma-Aldrich, St. Louis, Mo.). Nociceptive response is then measured at 120 minutes post-LPS injection. Compounds are formulated by dissolving them in ethanol and mixing with cream in a ratio of 1:8. Eight animals per group are used. A dose response curve is obtained by administering increasing concentrations of EETs and measuring nociceptive response.
# Behavioral nociceptive testing was conducted by assessing thermal hindpaw withdrawal latencies (“TWL”) using a commercial Hargreaves (Hargreaves et al., A new and sensitive method for measuring thermal nociception in cutaneous hyperalgesia. Pain 32:77-88 (1988)) apparatus (IITC Life Science Inc., Woodland Hills, Calif.). Male Sprague-Dawley rats weighing 240-250 g, were individually housed at the UC Davis Animal Resource Facility under standard conditions with free access to food and water, and maintained for at least 1 week before the experiments. On the day of the experiment, the rats were transferred to a quiet room, acclimated for 1 h, and their baseline responses measured. In pilot experiments, the intensity of the thermal stimulus was set to produce a baseline TWL of 7-8 s. Following baseline measurements, rats were first treated with 200 μl of vehicle or compound-formulated cream by topical application to one hind paw. Compounds (including sEHI, steroid synthesis inhibitors, steroid receptor antagonists, and cannabinoid receptor antagonists, as shown in the Figure legends) were formulated by dissolving them in ethanol and mixing with Vanicream® (Pharmaceutical Specialties, Inc., Rochester, Minn.) in a ratio of 1:9. The cream was thoroughly massaged across the entire hind paw surface over a 2 min period. After 1.5 hours rats were treated with 200 μl of sEHI formulated cream. Within 10 min of sEHI application, lipopolysaccharide (“LPS”, 10 μg in 50 μl 0.9% NaCl) was injected subcutaneously into the plantar surface of the treated paw. Immediately following LPS injection, animals were placed in acrylic chambers on a glass platform maintained at a temperature of 30±1° C. for TWL-measurement. During TWL measurement, a beam of radiant heat was focused onto the mid-portion of the plantar surface of the treated hind paw until the rat moved its stimulated hindpaw abruptly away from the heat stimulus. The duration of heat application necessary to elicit a withdrawal was designated as TWL. A maximum stimulus duration of 22 s was imposed to prevent tissue damage. Five TWL measurements were taken at 3-4 min interstimulus intervals for each of the time points following treatment. The three median TWLs were averaged for each animal at each time point.
# [2] = tested on: CAR induced local thermal hyperalgesia; test: carrageenan-induced thermal hyperalgesia model; format: in vivo; settings: topical, 20 hours post 2% carrageenan
# Description: Using a second distinct inflammatory model, hyperalgesia was induced by intraplantar injection of 2% carrageenan (CAR) and sEH inhibitors were again delivered topically 20 hours post CAR injection.
# CB2 over CB1 = settings: cited from earlier work
# [3] = metabolomic analysis of oxylipids and prostaglandins in LPS-treated animals; format: in vivo
# Text: (In FIG. 3A, the bar presenting the results for the metabolite 6-keto-PGF1a for one group of animals exceeded the scale, as shown by a break in the bar and the statement of the result in ng/mL about the bar). FIG. 3A. […] FIG. 3C. […] All three graphs: bars with lines rising from left to right (e.g., in FIG. 3A, the “sum of DHETs”) present results for untreated (naïve) animals, bars with lines falling from left to right present results for animals treated with LPS, bars with cross-hatching present results for the animals treated with LPS and the sEH inhibitor AEPU, and bars with horizontal lines present the results for animals treated with LPS, AEPU, and the steroid synthesis inhibitor aminogluthetimide (“AGL”). The metabolites chosen for study show the effect on different pathways by which arachidonic acid is metabolized. ΣEpOMEs and ΣDiHOMEs are indicators of the P450 pathway, HETEs are an indicator of how much arachidonic acid is going through the 5-lipoxygenase pathway and 6-keto-PGF1a, and PGE2 are indicators of the arachidonic acid metabolized by the cyclooxygenase pathway. 6-keto-PGF1a and TXB2 are stable metabolites of PGI2 and thromboxane A2 which have been implicated in increased risk for stroke and heart attack. HODEs are lipoxygenase-derived fatty acid metabolites.
# See, FIG. 3. This means that inhibition of sEH is not only effective against inflammatory pain but also effective in other types of pain that are not necessarily modulated by prostanoid levels. Indeed, non-inflammatory types of pain are known to be not well addressed by COX inhibitors. The levels of EETs and DHETs, however, correlated well with the nociceptive end result.
# [4] = displacement of high affinity ligand, read-out: IC50, CB2
# [5] = AGL+AEPU vs AEPU-administered animals
# T1 sequence (P34972 whole entry): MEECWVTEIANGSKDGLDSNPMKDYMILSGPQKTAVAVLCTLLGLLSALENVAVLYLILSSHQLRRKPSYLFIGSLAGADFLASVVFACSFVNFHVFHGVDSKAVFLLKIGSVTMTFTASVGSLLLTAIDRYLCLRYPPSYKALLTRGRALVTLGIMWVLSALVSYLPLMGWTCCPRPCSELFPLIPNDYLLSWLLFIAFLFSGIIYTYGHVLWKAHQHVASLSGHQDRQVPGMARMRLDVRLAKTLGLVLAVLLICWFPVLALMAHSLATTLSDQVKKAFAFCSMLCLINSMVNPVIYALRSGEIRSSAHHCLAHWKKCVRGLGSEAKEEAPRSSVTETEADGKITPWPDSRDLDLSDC
# Dopamine D3, sequence (P35462 whole entry): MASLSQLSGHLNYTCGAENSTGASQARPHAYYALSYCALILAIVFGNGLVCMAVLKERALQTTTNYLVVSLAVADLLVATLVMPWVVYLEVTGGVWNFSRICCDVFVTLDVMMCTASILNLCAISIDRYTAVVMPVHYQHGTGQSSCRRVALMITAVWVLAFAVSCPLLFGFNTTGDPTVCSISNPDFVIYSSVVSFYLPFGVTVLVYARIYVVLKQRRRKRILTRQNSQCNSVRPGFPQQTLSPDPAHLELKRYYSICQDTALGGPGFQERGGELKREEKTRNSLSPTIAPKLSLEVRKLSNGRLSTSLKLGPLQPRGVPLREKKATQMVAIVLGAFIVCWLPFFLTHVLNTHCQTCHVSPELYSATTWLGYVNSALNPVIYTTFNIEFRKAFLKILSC
smiles,measurement,setting,value
"CCCCC/C=C\CC1OC1C/C=C\C/C=C\CCCC(=O)OC (stereo not shown) [11,12 EET-me]",IC50,Dopamine D3,> 100 µM
same,IC50,Cannabinoid CB2; [4],> 100 µM
same,IC50,BZD (peripheral),140 µM
same,IC50,Neurokinin NK2,> 100 µM
"CCCCC/C=C\C[C@H]1O[C@H]1C/C=C\C/C=C\CCCC(=O)O [11,12-EET]",% Inhibition of Control Specific Binding,Dopamine D3,6%
same,% Inhibition of Control Specific Binding,Cannabinoid CB2; second round,3%
same,inhibition of binding of [3H]PK 11195 (FIG. 1),BZD (peripheral),completely inhibit
same,% Inhibition of Control Specific Binding,BZD (peripheral),28%
same,% Inhibition of Control Specific Binding,Neurokinin NK2,1%
"CCCCC/C=C\C/C=C\CC1OC1C/C=C\CCCC(=O)OC (stereo not shown) [8,9 EET-me]",IC50,Dopamine D3,> 100 µM
same,IC50,Cannabinoid CB2; [4],> 100 µM
same,IC50,BZD (peripheral),> 100 µM
same,IC50,Neurokinin NK2,> 100 µM
CC#C[C@]1(O)CC[C@H]2[C@@H]3CCC4=CC(=O)CCC4=C3[C@@H](c3ccc(N(C)C)cc3)C[C@@]21C [mifepristone],effect on the antihyperalgesic action of sEHI AEPU,[1],did not have any impact
"Cc1c(C(=O)NN2CCCCC2)nn(-c2ccc(Cl)cc2Cl)c1-c1ccc(I)cc1 [AM251, N-(piperidin-1-yl)-5-(4-iodophenyl)-1-(2,4-dichlorophenyl)-4-methy 1-1H-pyrazole-3-carboxamide]",effect on sEHI-elicited analgesia,[1],did not block
CC/C(=C(\c1ccccc1)c1ccc(OCCN(C)C)cc1)c1ccccc1 [tamoxifen],effect on the antihyperalgesic action of sEHI AEPU,[1],did not have any impact
"CCCCOC(=O)CCCCCCCCCCCNC(=O)NC12CC3CC(CC(C3)C1)C2 [AUDA-be, 12-(3-Adamantan-1-yl-ureido)dodecanoic acid butyl ester]",attenuation of LPS-elicited thermal hyperalgesia,[1]; topical administration,prophylactic effect
same,effect on CAR induced thermal hyperalgesia,[2],blocked CAR induced local thermal hyperalgesia effectively; also recorded: effective therapeutically in reversing thermal hyperalgesia
"CCCCC/C=C\C/C=C\CC1OC1C/C=C\CCCC(=O)O (stereo not shown) [8,9-EET]",% Inhibition of Control Specific Binding,Dopamine D3,9%
same,% Inhibition of Control Specific Binding,Cannabinoid CB2; second round,−2%
same,% Inhibition of Control Specific Binding,BZD (peripheral),11%
same,% Inhibition of Control Specific Binding,Neurokinin NK2,10%
"CCCCCC1OC1C/C=C\C/C=C\C/C=C\CCCC(=O)O (stereo not shown) [14,15-EET]",% Inhibition of Control Specific Binding,Dopamine D3,10%
same,% Inhibition of Control Specific Binding,Cannabinoid CB2; second round,5%
same,inhibition of binding of [3H]PK 11195 (FIG. 1),BZD (peripheral),completely inhibit
same,% Inhibition of Control Specific Binding,BZD (peripheral),45%
same,% Inhibition of Control Specific Binding,Neurokinin NK2,8%
"Cc1c(C(=O)c2cccc3ccccc23)c2cccc3c2n1C(CN1CCOCC1)CC3=O (stereo not shown) [WIN55212-2, 4,5-dihydro-2-methyl-4(4-morpholinylmethyl)-1-(1-naphthalenylcarbonyl)-6H-pyrrolo[3,2,1ij]quinolin-6-one, reference compound]",IC50,"Cannabinoid CB2; reference compound, first round, read-out: IC50 Ref (affinity of reference compound)",0.0076 µM
same,IC50,"Cannabinoid CB2; reference compound, second round, read-out: IC50 Ref",0.0027 µM
"COc1ccc(C(=O)c2c(C)n(CCN3CCOCC3)c3cc(I)ccc23)cc1 [AM630, iodopravadoline]",effect on sEHI-elicited analgesia,[1],completely blocked
"CCCCC/C=C\C/C=C\C/C=C\CC1OC1CCCC(=O)O (stereo not shown) [5,6-EET]",% Inhibition of Control Specific Binding,Dopamine D3,18%
same,% Inhibition of Control Specific Binding,Cannabinoid CB2; second round,25%
same,inhibition of binding of [3H]PK 11195 (FIG. 1),BZD (peripheral),completely inhibit
same,% Inhibition of Control Specific Binding,BZD (peripheral),27%
same,% Inhibition of Control Specific Binding,Neurokinin NK2,25%
CN1CCCCC1Cn1cc(C(=O)c2cc([N+](=O)[O-])ccc2I)c2ccccc21 (stereo not shown) [AM1241],selectivity for CB2 over CB1,CB2 over CB1,340 fold
"CCCCCC1OC1C/C=C\C/C=C\C/C=C\CCCC(=O)OC (stereo not shown) [14,15 EET-me]",IC50,Dopamine D3,> 100 µM
same,IC50,Cannabinoid CB2; [4],> 100 µM
same,IC50,BZD (peripheral),12 µM
same,IC50,Neurokinin NK2,> 100 µM
CC1(C)NC(=O)N(c2ccc([N+](=O)[O-])c(C(F)(F)F)c2)C1=O [nilutamide],effect on the antihyperalgesic action of sEHI AEPU,[1],did not have any impact
CCC1(c2ccc(N)cc2)CCC(=O)NC1=O (stereo not shown) [AGL],levels of DHETs,[3]; [5],increased
same,levels of EETs,[3]; [5],significantly reduced
same,PGE2 levels,[3]; AGL+LPS+AEPU vs AEPU+LPS or LPS only (FIG. 3),significantly lower
same,effect on response to LPS administration,[1],do not they modify
same,effect on baseline TWL response,[1],no impact
same,effect on the antihyperalgesic action of sEHI AEPU,[1],completely blocked; also recorded: clearly hyperalgesic
CC(=O)S[C@@H]1CC2=CC(=O)CC[C@]2(C)[C@H]2CC[C@@]3(C)[C@@H](CC[C@@]34CCC(=O)O4)[C@H]12 [spironoloactone],effect on the antihyperalgesic action of sEHI AEPU,[1],did not have any impact
CC(C)(C)NC(=O)[C@H]1CC[C@H]2[C@@H]3CC[C@H]4NC(=O)C=C[C@]4(C)[C@H]3CC[C@]12C [Finasteride],effect on response to LPS administration,[1],do not they modify
same,effect on baseline TWL response,[1],no impact
same,effect on the antihyperalgesic action of sEHI AEPU,[1],blocked
"CCCCC/C=C\C/C=C\C/C=C\CC1OC1CCCC(=O)OC (stereo not shown) [5,6 EET-me]",IC50,Dopamine D3,> 100 µM
same,IC50,Cannabinoid CB2; [4],20 µM
same,IC50,BZD (peripheral),12 µM
same,IC50,Neurokinin NK2,36 µM
